Experimental data: article PMC2721767 (Purinergic Signalling, 2008)

Test system: human washed platelets
Assay: ADP-induced aggregation of human washed platelets
Assay type: cell-based
Details: SCH442416 10 μM preapplication, data not shown

Structure (SMILES): COc1ccc(CCCn2ncc3c2nc(N)n2nc(-c4ccco4)nc32)cc1 [SCH442416, 5-Amino-7-(3-(4-methoxy)phenylpropyl)-2-(2-furyl)pyrazolo[4,3-e]-1,2,4-triazolo[1,5-c]pyrimidine]
- effect of antagonist on inhibition of platelet aggregation by 1 µM 10 (5 μM ADP): completely reversed the inhibitory effect
- effect of antagonist alone on aggregation induced by 5 μM ADP: had no effect on aggregation
